Assays:
[1] = system: Tyrosine-protein kinase ABL1 (Homo sapiens), P00519 [F317L]; assay: Inhibition of phosphorylated ABL1 F317L mutant at 10 uM; conditions: values are per cent of control
[2] = molecular target: Phosphatidylinositol 4,5-bisphosphate 3-kinase catalytic subunit gamma isoform (Homo sapiens) (UniProt P48736); assay: Inhibition of PIK3CG at 10 uM
[3] = molecular target: Non-receptor tyrosine-protein kinase TYK2 (Homo sapiens) (UniProt P29597); assay: Inhibition of TYK2 JH1 catalytic domain at 10 uM; conditions: values are per cent of control
[4] = molecular target: Cytoplasmic tyrosine-protein kinase BMX (Homo sapiens) (UniProt P51813); assay: Inhibition of BMX at 10 uM; conditions: values are per cent of control
[5] = molecular target: Membrane-associated tyrosine- and threonine-specific cdc2-inhibitory kinase (Homo sapiens) (UniProt Q99640); assay: Inhibition of PKMYT1 at 10 uM
[6] = molecular target: Serine/threonine-protein kinase PAK 5 (Homo sapiens) (UniProt Q9P286); assay: Inhibition of PAK7 at 10 uM; conditions: values are per cent of control
[7] = system: Epidermal growth factor receptor (Homo sapiens), P00533 [G719S]; assay: Inhibition of EGFR G719S mutant at 10 uM; values are per cent of control
[8] = molecular target: Tyrosine-protein kinase ABL1 (Homo sapiens) (UniProt P00519); assay: Inhibition of non phosphorylated ABL1 at 10 uM; conditions: values are per cent of control
[9] = molecular target: Homeodomain-interacting protein kinase 3 (Homo sapiens) (UniProt Q9H422); assay: Inhibition of HIPK3 at 10 uM; conditions: values are per cent of control
[10] = molecular target: Serine/threonine-protein kinase Nek7 (Homo sapiens) (UniProt Q8TDX7); assay: Inhibition of NEK7 at 10 uM
[11] = molecular target: SNF-related serine/threonine-protein kinase (Homo sapiens) (UniProt Q9NRH2); assay: Inhibition of SNRK at 10 uM
[12] = molecular target: Fibroblast growth factor receptor 2 (Homo sapiens) (UniProt P21802); assay: Inhibition of FGFR2 at 10 uM; conditions: values are per cent of control
[13] = molecular target: cGMP-dependent protein kinase 1 (Homo sapiens) (UniProt Q13976); assay: Inhibition of PRKG1 at 10 uM; conditions: values are per cent of control
[14] = molecular target: Receptor tyrosine-protein kinase erbB-3 (Homo sapiens) (UniProt P21860); assay: Inhibition of ERBB3 at 10 uM; values are per cent of control
[15] = molecular target: Tyrosine-protein kinase Fes/Fps (Homo sapiens) (UniProt P07332); assay: Inhibition of FES at 10 uM; conditions: values are per cent of control
[16] = molecular target: Serine/threonine-protein kinase MRCK gamma (Homo sapiens) (UniProt Q6DT37); assay: Inhibition of DMPK2 at 10 uM; conditions: values are per cent of control
[17] = molecular target: Casein kinase I isoform alpha (Homo sapiens) (UniProt P48729); assay: Inhibition of CSNK1A1 at 10 uM; values are per cent of control
[18] = system: Tyrosine-protein kinase ABL1 (Homo sapiens), P00519 [T315I]; assay: Inhibition of phosphorylated ABL1 T315I mutant at 10 uM; conditions: values are per cent of control
[19] = molecular target: Transient receptor potential cation channel subfamily M member 6 (Homo sapiens) (UniProt Q9BX84); assay: Inhibition of TRPM6 at 10 uM; conditions: values are per cent of control
[20] = molecular target: cAMP-dependent protein kinase catalytic subunit beta (Homo sapiens) (UniProt P22694); assay: Inhibition of PKAC-beta at 10 uM; conditions: values are per cent of control
[21] = molecular target: MAP/microtubule affinity-regulating kinase 3 (Homo sapiens) (UniProt P27448); assay: Inhibition of MARK3 at 10 uM; conditions: values are per cent of control
[22] = molecular target: Serine/threonine-protein kinase 33 (Homo sapiens) (UniProt Q9BYT3); assay: Inhibition of STK33 at 10 uM
[23] = molecular target: Ephrin type-A receptor 5 (Homo sapiens) (UniProt P54756); assay: Inhibition of EPHA5 at 10 uM; values are per cent of control
[24] = molecular target: Ribosomal protein S6 kinase beta-1 (Homo sapiens) (UniProt P23443); assay: Inhibition of S6K1 at 10 uM
[25] = molecular target: Interleukin-1 receptor-associated kinase 4 (Homo sapiens) (UniProt Q9NWZ3); assay: Inhibition of IRAK4 at 10 uM; values are per cent of control
[26] = system: Epidermal growth factor receptor (Homo sapiens), P00533 [G719C]; assay: Inhibition of EGFR G719C mutant at 10 uM; values are per cent of control
[27] = molecular target: Myosin-IIIa (Homo sapiens) (UniProt Q8NEV4); assay: Inhibition of MYO3A at 10 uM
[28] = molecular target: Receptor tyrosine-protein kinase erbB-4 (Homo sapiens) (UniProt Q15303); assay: Inhibition of ERBB4 at 10 uM; values are per cent of control
[29] = system: Leucine-rich repeat serine/threonine-protein kinase 2 (Homo sapiens), Q5S007 [G2019S]; assay: Inhibition of LRRK2 G2019S mutant at 10 uM; conditions: values are per cent of control
[30] = molecular target: Rho-associated protein kinase 2 (Homo sapiens) (UniProt O75116); assay: Inhibition of ROCK2 at 10 uM
[31] = molecular target: Mast/stem cell growth factor receptor Kit (Homo sapiens) (UniProt P10721); assay: Inhibition of KIT at 10 uM; conditions: values are per cent of control
[32] = molecular target: Myosin light chain kinase 2, skeletal/cardiac muscle (Homo sapiens) (UniProt Q9H1R3); assay: Inhibition of MYLK2 at 10 uM
[33] = molecular target: Cyclin-dependent kinase 16 (Homo sapiens) (UniProt Q00536); assay: Inhibition of PCTK1 at 10 uM; conditions: values are per cent of control
[34] = molecular target: Serine/threonine-protein kinase 38 (Homo sapiens) (UniProt Q15208); assay: Inhibition of NDR1 at 10 uM
[35] = molecular target: Dual specificity protein kinase CLK2 (Homo sapiens) (UniProt P49760); assay: Inhibition of CLK2 at 10 uM; conditions: values are per cent of control
[36] = molecular target: Ribosomal protein S6 kinase alpha-4 (Homo sapiens) (UniProt O75676); assay: Inhibition of RPS6KA4 N-terminal domain1 at 10 uM
[37] = molecular target: Serine/threonine-protein kinase OSR1 (Homo sapiens) (UniProt O95747); assay: Inhibition of OSR1 at 10 uM
[38] = molecular target: Serine/threonine-protein kinase TBK1 (Homo sapiens) (UniProt Q9UHD2); assay: Inhibition of TBK1 at 10 uM
[39] = molecular target: Phosphatidylinositol 4-kinase beta (Homo sapiens) (UniProt Q9UBF8); assay: Inhibition of PIK4CB at 10 uM
[40] = molecular target: Serine/threonine-protein kinase tousled-like 1 (Homo sapiens) (UniProt Q9UKI8); assay: Inhibition of TLK1 at 10 uM
[41] = molecular target: Epidermal growth factor receptor (Homo sapiens) (UniProt P00533); assay: Inhibition of EGFR at 10 uM; values are per cent of control
[42] = molecular target: Tyrosine-protein kinase Tec (Homo sapiens) (UniProt P42680); assay: Inhibition of TEC at 10 uM; values are per cent of control

Chain of SNF-related serine/threonine-protein kinase (Homo sapiens) (Q9NRH2 whole entry): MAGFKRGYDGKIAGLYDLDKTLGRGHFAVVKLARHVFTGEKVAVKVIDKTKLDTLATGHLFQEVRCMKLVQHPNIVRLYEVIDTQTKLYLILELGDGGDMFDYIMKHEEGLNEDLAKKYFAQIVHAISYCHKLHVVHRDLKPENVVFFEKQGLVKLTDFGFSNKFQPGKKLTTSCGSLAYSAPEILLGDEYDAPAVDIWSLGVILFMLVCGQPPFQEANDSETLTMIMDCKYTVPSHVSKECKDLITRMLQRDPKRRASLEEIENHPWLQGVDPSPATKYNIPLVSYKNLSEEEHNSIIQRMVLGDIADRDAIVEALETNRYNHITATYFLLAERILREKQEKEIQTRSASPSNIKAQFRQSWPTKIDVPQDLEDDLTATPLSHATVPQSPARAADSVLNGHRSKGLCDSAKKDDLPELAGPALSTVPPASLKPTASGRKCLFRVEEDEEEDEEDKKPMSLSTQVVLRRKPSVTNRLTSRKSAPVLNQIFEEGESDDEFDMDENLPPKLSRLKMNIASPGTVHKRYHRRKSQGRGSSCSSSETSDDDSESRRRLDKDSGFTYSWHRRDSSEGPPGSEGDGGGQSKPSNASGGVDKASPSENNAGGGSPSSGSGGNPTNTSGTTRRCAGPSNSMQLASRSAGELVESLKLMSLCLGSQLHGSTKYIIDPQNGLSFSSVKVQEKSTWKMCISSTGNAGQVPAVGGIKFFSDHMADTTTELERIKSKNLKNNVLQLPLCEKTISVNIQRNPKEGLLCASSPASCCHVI
Chain of Transient receptor potential cation channel subfamily M member 6 (Homo sapiens) (Q9BX84 whole entry): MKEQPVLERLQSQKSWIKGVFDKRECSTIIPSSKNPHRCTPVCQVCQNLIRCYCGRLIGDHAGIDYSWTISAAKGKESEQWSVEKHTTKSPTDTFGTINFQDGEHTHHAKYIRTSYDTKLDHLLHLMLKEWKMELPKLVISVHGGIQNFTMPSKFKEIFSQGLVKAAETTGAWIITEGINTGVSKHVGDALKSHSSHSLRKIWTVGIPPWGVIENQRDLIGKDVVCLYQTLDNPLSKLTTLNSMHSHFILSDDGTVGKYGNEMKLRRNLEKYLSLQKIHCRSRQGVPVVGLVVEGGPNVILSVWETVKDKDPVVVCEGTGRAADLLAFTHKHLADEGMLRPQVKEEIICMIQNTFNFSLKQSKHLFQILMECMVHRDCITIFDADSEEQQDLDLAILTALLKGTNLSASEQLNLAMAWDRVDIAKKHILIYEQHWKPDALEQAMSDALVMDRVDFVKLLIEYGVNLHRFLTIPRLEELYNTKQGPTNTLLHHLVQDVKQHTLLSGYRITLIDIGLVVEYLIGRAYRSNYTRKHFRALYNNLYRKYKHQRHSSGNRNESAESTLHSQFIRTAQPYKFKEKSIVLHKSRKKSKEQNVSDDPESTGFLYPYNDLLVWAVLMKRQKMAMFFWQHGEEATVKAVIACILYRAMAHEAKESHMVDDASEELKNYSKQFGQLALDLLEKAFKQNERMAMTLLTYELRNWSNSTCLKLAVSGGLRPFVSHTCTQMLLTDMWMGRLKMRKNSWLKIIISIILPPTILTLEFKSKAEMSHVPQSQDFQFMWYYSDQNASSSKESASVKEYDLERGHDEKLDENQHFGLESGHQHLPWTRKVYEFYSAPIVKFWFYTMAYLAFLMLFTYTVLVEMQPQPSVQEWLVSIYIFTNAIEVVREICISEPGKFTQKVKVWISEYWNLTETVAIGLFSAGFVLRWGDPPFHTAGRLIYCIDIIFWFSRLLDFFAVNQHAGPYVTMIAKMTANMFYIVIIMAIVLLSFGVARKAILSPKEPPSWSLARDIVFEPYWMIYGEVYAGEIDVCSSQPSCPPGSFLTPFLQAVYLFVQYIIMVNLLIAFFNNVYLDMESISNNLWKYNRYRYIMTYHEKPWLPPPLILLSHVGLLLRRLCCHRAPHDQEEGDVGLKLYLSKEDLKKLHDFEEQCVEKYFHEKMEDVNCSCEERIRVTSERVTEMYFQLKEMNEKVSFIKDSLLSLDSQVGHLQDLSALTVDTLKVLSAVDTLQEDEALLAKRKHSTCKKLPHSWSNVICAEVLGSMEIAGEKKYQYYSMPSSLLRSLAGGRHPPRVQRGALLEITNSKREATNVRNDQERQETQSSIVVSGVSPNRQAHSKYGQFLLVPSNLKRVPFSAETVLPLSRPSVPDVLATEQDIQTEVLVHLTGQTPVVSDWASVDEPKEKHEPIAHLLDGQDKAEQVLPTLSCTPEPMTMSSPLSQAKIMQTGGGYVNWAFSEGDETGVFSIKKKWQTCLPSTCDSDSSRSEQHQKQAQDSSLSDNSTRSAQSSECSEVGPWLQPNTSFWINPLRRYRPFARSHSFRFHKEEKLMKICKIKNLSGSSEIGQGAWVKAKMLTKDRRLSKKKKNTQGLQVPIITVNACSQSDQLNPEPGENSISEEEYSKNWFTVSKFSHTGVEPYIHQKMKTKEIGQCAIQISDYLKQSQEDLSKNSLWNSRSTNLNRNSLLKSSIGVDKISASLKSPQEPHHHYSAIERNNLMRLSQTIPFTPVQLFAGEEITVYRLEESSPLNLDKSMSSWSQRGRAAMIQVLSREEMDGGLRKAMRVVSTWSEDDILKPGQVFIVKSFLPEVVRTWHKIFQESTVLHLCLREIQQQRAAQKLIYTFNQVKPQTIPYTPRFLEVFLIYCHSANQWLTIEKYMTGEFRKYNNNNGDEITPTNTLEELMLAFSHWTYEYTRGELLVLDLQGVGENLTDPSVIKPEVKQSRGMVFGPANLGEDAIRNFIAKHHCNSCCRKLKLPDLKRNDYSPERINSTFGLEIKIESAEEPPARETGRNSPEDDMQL
Chain of Dual specificity protein kinase CLK2 (Homo sapiens) (P49760 whole entry, looked up, the tested form may be a part): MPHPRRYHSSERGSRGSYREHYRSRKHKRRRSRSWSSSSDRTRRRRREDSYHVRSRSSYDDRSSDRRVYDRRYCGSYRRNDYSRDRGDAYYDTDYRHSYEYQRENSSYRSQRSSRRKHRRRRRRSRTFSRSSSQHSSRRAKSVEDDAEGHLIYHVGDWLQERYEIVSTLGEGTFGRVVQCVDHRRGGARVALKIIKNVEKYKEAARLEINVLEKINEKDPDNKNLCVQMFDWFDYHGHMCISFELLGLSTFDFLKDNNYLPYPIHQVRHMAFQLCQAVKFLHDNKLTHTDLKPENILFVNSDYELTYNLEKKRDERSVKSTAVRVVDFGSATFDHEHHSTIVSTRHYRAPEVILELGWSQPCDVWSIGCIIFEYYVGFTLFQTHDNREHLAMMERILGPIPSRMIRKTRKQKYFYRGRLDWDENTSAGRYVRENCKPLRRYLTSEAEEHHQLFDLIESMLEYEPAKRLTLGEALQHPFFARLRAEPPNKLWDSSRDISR
Chain of Mast/stem cell growth factor receptor Kit (Homo sapiens) (P10721 whole entry): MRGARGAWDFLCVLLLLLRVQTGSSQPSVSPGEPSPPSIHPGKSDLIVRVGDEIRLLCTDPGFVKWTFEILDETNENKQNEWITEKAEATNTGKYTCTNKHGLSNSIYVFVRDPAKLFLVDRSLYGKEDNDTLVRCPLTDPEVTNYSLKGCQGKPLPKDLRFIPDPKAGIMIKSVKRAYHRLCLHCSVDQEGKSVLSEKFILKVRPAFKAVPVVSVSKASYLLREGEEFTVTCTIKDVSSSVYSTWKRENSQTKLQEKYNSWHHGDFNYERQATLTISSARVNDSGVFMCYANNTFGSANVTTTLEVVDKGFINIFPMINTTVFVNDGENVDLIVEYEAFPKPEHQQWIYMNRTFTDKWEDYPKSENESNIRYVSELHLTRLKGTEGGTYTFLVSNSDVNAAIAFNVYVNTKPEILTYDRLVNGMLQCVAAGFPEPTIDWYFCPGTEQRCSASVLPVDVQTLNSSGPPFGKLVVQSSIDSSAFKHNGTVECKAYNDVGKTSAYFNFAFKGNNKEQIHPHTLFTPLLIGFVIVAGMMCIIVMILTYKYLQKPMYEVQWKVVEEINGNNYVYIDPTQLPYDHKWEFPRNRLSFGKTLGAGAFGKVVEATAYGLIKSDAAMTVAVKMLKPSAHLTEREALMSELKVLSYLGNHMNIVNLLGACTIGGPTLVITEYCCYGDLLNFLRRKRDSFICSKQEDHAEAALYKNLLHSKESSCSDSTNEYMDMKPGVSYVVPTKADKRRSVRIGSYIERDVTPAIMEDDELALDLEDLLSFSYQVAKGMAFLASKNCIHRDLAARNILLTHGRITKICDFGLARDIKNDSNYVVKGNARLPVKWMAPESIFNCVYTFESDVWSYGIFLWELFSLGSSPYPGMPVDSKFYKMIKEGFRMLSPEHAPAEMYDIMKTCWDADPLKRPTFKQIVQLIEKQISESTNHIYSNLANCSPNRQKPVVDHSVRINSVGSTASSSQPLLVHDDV
Chain of MAP/microtubule affinity-regulating kinase 3 (Homo sapiens) (P27448 whole entry, looked up): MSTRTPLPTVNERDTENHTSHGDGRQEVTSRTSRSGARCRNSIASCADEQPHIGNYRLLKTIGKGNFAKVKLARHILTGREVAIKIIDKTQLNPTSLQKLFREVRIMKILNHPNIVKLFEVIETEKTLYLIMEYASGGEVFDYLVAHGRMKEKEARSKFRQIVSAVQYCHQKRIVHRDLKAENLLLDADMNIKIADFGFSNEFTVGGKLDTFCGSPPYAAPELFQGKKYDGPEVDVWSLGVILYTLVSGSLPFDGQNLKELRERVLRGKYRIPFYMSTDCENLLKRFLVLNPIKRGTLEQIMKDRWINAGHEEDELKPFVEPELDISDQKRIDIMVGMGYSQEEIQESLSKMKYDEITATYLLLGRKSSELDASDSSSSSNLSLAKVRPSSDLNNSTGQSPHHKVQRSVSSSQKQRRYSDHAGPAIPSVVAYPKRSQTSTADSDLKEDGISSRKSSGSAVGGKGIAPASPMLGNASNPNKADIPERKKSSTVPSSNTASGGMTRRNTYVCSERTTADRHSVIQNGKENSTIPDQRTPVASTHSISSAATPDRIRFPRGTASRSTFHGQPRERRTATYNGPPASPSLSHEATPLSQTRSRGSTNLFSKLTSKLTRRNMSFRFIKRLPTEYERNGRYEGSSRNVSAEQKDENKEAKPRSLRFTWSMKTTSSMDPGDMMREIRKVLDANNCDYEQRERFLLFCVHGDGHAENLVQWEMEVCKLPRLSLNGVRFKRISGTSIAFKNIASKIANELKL

Structure (SMILES): CCN1CCN(Cc2ccc(NC(=O)c3ccc(C)c(C#Cc4cccnc4)c3)cc2C(F)(F)F)CC1
- residual binding, % of control [1]: 0.85%
- inhibition [2]: 100%
- residual binding, % of control [3]: 4.2%
- residual binding, % of control [4]: 2.7%
- inhibition [5]: 85%
- residual binding, % of control [6]: 83%
- level, % of control [7]: 2.4%
- residual binding, % of control [8]: 0%
- residual binding, % of control [9]: 18%
- inhibition [10]: 88%
- inhibition [11]: 34%
- residual binding, % of control [12]: 0.5%
- residual binding, % of control [13]: 100%
- level, % of control [14]: 100%
- residual binding, % of control [15]: 0.75%
- residual binding, % of control [16]: 77%
- level, % of control [17]: 75%
- residual binding, % of control [18]: 2.6%
- residual binding, % of control [19]: 49%
- residual binding, % of control [20]: 4.1%
- residual binding, % of control [21]: 69%
- inhibition [22]: 14%
- level, % of control [23]: 1.2%
- inhibition [24]: 11%
- level, % of control [25]: 72%
- level, % of control [26]: 0.75%
- inhibition [27]: 3.2%
- level, % of control [28]: 1.8%
- residual binding, % of control [29]: 7.5%
- inhibition [30]: 19%
- residual binding, % of control [31]: 0%
- inhibition [32]: 3.4%
- residual binding, % of control [33]: 8.4%
- inhibition [34]: 4%
- residual binding, % of control [35]: 88%
- inhibition [36]: 30%
- inhibition [37]: 48%
- inhibition [38]: 100%
- inhibition [39]: 100%
- inhibition [40]: 93%
- level, % of control [41]: 3%
- % of control [42]: 3.7%

Structure (SMILES): CCN1CCN(Cc2ccc(NC(=O)c3ccc(C)c(C#Cc4cnc5[nH]ccc5c4)c3)cc2C(F)(F)F)CC1
- residual binding, % of control [1]: 0.85%
- inhibition [2]: 100%
- residual binding, % of control [3]: 6.8%
- residual binding, % of control [4]: 2.6%
- inhibition [5]: 48%
- residual binding, % of control [6]: 64%
- level, % of control [7]: 0.15%
- residual binding, % of control [8]: 0.1%
- residual binding, % of control [9]: 25%
- inhibition [10]: 50%
- inhibition [11]: 60%
- residual binding, % of control [12]: 0.5%
- residual binding, % of control [13]: 100%
- level, % of control [14]: 89%
- residual binding, % of control [15]: 0.1%
- residual binding, % of control [16]: 35%
- level, % of control [17]: 89%
- residual binding, % of control [18]: 0.9%
- residual binding, % of control [19]: 64%
- residual binding, % of control [20]: 11%
- residual binding, % of control [21]: 42%
- inhibition [22]: 6.8%
- level, % of control [23]: 0.85%
- inhibition [24]: 3.2%
- level, % of control [25]: 64%
- level, % of control [26]: 0%
- inhibition [27]: 15%
- level, % of control [28]: 0.1%
- residual binding, % of control [29]: 8.8%
- inhibition [30]: 18%
- residual binding, % of control [31]: 0%
- inhibition [32]: 0.15%
- residual binding, % of control [33]: 46%
- inhibition [34]: 33%
- residual binding, % of control [35]: 100%
- inhibition [36]: 3.6%
- inhibition [37]: 60%
- inhibition [38]: 84%
- inhibition [39]: 100%
- inhibition [40]: 93%
- level, % of control [41]: 0.3%
- % of control [42]: 0.1%
